Broadly, the IC50 is the midpoint of a concentration-inhibition curve.

The results in this text go back to paper PMC5602538, “Assessment of the Drug Interaction Potential of Unconjugated and GalNAc3-Conjugated 2′-MOE-ASOs” (Molecular Therapy. Nucleic Acids, 2017).

In one data set the target is T1, CYP1A2 (Homo sapiens, UniProt P05177).
T1 construct: Human hepatocytes (pooled from 5 donors); host or cells: cryopreserved human hepatocytes in suspension, pooled from 5 donors
Kind of data set: CYP1A2 inhibition in cryopreserved human hepatocyte suspensions (phenacetin probe). The class given is in vitro ADME. The following applies: human hepatocytes.

For another data set, the target named is CYP3A4 (Homo sapiens, UniProt P08684). The following applies: hepatocytes.
The target of a further data set is CYP2D6 (Homo sapiens, UniProt P10635). The conditions noted are these: hepatocytes.
In another data set the target is CYP2E1 (Homo sapiens, UniProt P05181). The following applies: hepatocytes.
Another data set concerns the target T2, CYP2B6 (Homo sapiens, UniProt P20813).
T2 sequence (P20813 1-491): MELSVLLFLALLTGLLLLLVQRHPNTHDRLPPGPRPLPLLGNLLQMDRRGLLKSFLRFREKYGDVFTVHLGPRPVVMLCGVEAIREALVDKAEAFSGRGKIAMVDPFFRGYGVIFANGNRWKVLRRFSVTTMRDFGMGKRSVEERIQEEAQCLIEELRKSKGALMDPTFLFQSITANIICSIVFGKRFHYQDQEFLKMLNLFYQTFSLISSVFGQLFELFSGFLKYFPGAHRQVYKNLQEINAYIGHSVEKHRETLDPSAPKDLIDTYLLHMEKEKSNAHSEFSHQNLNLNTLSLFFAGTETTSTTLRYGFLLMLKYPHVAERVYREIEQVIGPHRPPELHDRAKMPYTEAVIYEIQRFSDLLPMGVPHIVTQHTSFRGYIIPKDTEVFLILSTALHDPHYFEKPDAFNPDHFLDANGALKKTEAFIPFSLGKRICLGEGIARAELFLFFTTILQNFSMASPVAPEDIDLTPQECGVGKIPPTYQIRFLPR
The following applies: hepatocytes.

The target in a further data set is CYP2C19 (Homo sapiens, UniProt P33261). The following applies: hepatocytes.
The target of a further data set is CYP2C9 (Homo sapiens, UniProt P11712). The conditions noted are these: hepatocytes.
For data set [1], the system named is OAT1, OAT3, OCT1, OCT2, OATP1B1, OATP1B3, BCRP, P-gp, and BSEP. Kind of data set: Inhibition studies of major SLC and ABC transporters, all transporters evaluated. It counts as in vitro ADME. The conditions noted are these: 100 μM ASO. As for the experimental part:
(§1) A 96-well cell culture plate containing a monolayer of MDCK-II cells grown on a permeable support and a corresponding receiver tray was used. The basolateral compartment of the culture plate and wells were washed with warm HBSS three times, with wells of the culture plate serving as the apical compartment. The wash was aspirated by adding 150 μL of 37°C HBSS to both compartments. Plates were incubated at 37°C with orbital shaking at 60 rpm for 15 min for OAT1, OAT3, OCT1, OCT2, OATP1B1, and OATP1B3 (±5 min). The pre-incubation buffer from both compartments was aspirated and 150 μL of the following was added to the basal compartment. For the probe substrate transport assay, HBSS in each well contained one of following probe substrates (positive control for transport), OCT1, 2 μM [^3H]-MPP^+; OCT2, 10 μM [^14C]-metformin; OAT1, 2 μM [^3H]-p-aminohippurate; OAT3, 10 μM [^3H]-p-aminohippurate; OATP1B1, 2 μM [^3H]-estradiol-17 β-D-glucuronide; and OATP1B3, 2 μM [^3H]-cholecystokinin octapeptide (CCK-8). […] Inhibition studies contained HBSS in each well, the probe substrate, and 100 μM of each test article, whereas substrate studies contained HBSS in each well and 10 μM of each test article. Plates were incubated at 37°C with orbital shaking at 60 rpm for 5 min. Both sides of the permeable support were washed four times with ice-cold PBS and 60 μL of cell extraction solution was added to each well. Plates were agitated for 15 min at 120 rpm, after which a 30-μL sample of the extract was collected. Samples containing probe substrate were added to 200 μL of scintillation fluid and counted on a 1450 Microbeta (PerkinElmer), whereas samples containing the test article were kept frozen. Test article concentrations, including control samples, were evaluated by an LC-MS method.
MDCK-MDR1 cells and MDCK-II cells transfected with BCRP were washed with HBSS at 37°C. Wells of the culture plate served as the apical compartment, and 150 μL of HBSS solutions was added to the apical wells. […]

A further data set relates to T3, OCT2.
T3 construct: expressed in transfected cells; host or cells: MDCK-II
Kind of data set: OCT2 substrate uptake study in MDCK cells. It counts as in vitro ADME. The conditions noted are these: 10 μM ASO. How it is done:
as §1, with “Plates were incubated at 37°C with orbital shaking at 60 rpm for 5 min. Both sides of the permeable support were washed four times with ice-cold PBS and 60 μL of cell extraction solution was added to each well. Plates were agitated for 15 min at 120 rpm, after which a 30-μL sample of the extract was collected.” left out
Signal to noise for probe substrates was calculated by dividing the uptake of the probe substrate in transporter-expressing cells by the uptake of probe substrate in control cells not expressing the transporter of interest. Percent inhibition was calculated by dividing the net-transporter-mediated substrate uptake in the presence of the test article or the reference inhibitor by the net-transporter-mediated substrate uptake in the absence of the inhibitor according to the equation: %inhibition=100−(100×(transporter-mediateduptake)withinhibitor/(transporter-mediateduptake)withoutinhibitor).

{GalNAc3} = trishexylamino-C6 triantennary GalNAc conjugate; e = 2'-O-(2-methoxyethyl) (MOE); d = 2'-deoxy (DNA)

Sequence of CYP2E1 (P05181 whole entry): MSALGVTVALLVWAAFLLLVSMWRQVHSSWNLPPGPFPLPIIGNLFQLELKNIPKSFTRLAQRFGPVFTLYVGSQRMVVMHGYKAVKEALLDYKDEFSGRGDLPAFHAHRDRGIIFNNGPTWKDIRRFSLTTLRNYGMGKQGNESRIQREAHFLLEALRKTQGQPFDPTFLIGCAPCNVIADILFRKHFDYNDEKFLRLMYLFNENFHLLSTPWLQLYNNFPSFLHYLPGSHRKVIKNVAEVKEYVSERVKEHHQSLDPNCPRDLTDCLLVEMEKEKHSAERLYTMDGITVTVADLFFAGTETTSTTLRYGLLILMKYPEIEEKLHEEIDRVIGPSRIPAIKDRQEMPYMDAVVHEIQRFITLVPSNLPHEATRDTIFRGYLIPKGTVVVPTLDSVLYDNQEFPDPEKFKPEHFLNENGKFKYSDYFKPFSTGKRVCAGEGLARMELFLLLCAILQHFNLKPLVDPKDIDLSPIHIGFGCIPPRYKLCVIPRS
Sequence of CYP2C19 (P33261 whole entry): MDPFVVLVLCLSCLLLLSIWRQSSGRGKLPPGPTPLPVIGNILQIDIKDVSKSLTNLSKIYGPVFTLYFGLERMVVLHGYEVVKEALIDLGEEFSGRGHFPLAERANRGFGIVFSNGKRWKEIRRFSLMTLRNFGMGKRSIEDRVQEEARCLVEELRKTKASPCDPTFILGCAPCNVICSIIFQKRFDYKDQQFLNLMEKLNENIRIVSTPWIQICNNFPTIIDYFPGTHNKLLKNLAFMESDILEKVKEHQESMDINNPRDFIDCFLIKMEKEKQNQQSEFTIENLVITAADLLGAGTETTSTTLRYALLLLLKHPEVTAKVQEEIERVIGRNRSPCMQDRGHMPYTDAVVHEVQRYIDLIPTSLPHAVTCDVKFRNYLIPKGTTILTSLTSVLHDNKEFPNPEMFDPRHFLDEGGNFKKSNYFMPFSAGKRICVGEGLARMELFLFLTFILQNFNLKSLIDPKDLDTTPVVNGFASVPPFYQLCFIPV
Sequence of CYP2C9 (P11712 whole entry): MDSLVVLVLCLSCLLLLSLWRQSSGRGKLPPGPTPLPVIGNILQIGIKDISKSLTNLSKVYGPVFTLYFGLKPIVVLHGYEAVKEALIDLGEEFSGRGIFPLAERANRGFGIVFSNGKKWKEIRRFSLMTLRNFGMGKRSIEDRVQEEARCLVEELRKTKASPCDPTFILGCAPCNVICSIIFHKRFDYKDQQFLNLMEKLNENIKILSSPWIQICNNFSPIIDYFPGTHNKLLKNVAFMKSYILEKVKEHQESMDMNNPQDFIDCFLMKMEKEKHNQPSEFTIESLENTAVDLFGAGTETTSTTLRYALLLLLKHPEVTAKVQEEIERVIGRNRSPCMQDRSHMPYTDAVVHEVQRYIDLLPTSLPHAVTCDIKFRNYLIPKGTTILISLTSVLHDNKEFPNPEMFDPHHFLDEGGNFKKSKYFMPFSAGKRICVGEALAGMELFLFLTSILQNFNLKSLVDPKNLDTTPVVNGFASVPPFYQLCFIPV
Sequence of CYP2D6 (P10635 whole entry): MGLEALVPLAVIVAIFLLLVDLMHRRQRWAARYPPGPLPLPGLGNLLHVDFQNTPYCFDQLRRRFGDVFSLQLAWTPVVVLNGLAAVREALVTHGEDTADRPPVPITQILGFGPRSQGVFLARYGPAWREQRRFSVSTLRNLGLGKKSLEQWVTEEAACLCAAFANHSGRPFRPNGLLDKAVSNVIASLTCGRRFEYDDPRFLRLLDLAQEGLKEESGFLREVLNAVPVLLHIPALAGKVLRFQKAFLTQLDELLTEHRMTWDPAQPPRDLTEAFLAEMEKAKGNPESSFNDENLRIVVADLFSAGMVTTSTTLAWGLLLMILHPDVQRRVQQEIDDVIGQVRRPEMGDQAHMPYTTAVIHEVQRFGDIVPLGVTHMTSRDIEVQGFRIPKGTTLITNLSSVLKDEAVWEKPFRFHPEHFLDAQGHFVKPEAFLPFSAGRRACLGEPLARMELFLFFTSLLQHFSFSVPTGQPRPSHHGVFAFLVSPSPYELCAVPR
Sequence of CYP3A4 (P08684 whole entry): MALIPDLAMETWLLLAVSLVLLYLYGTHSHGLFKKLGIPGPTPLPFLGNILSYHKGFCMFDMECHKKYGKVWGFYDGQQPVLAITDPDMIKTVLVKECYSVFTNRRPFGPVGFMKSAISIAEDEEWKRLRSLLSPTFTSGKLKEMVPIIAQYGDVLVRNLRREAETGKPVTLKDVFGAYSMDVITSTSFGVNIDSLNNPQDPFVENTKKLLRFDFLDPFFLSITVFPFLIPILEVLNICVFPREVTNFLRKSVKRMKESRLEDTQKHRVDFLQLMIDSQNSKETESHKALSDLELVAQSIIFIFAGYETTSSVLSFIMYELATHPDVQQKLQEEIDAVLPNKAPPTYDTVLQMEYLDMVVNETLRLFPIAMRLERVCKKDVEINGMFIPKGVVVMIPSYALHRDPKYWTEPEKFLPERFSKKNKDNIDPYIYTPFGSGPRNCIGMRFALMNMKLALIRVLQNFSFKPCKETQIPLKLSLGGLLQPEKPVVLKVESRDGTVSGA
T1 sequence (P05177 whole entry): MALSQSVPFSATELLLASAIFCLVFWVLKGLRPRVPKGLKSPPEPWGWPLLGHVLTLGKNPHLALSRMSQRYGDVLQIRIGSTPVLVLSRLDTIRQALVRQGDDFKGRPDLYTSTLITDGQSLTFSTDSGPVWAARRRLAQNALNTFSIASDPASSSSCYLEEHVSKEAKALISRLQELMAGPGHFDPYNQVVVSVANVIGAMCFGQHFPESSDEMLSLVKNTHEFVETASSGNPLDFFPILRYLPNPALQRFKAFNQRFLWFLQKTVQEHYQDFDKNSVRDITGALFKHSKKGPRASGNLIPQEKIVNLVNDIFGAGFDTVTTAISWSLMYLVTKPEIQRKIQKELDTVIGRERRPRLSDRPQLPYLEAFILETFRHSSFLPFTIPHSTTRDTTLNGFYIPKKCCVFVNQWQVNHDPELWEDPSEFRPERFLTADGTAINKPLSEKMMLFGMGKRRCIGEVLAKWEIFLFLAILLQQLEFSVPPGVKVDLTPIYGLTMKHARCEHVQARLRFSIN
Experimental for CYP1A2: (§2) Preincubations were performed in 50 μL of Williams’ Medium E with 2 mM salicylamide. The salicylamide was included to reduce possible phase II conjugation to the precursor phase I metabolites. […] Human hepatocytes (pooled from 5 donors) were thawed and prepared according to the vendor’s protocol. […] Incubations were carried out at 37°C with 5% CO2. The incubation time was 45 min for phenacetin, diclofenac, dextromethorphan, midazolam, bupropion, chlorzoxazone, and testosterone and 90 min for paclitaxel and (S)-mephenytoin. The reactions were stopped by adding 200 μL of ice-cold acetonitrile (can) with tolbutamide (100 ng/mL) as the internal standard to 100 μL of hepatocyte suspension (1:2, v/v). The 96-well plate was then vortexed at 1,700 rpm for 3 min and centrifuged at 3,500 rpm for 10 min at 20°C. The supernatants were analyzed using liquid chromatography-tandem MS (LC-MS/MS).
Experimental for CYP2B6: as §2
Experimental for CYP2C19: as §2
Experimental for CYP2C9: as §2
Experimental for CYP2D6: as §2
Experimental for CYP2E1: as §2
Experimental for CYP3A4: as §2

Turning to “ISIS 304801: 20-mer (5-10-5) 2′-MOE gapmer PS backbone antisense inhibitor of apoC-III, sequence AGCTTCTTGTCCAGCTTTAT (sugars from the 5' end e5 d10 e5, all phosphorothioate, methylation of C not given here)”, the IC50 with CYP1A2, with CYP3A4, in the data set with CYP2D6, with CYP2E1, with CYP2B6 and with CYP2C19 was above 100 µM throughout. Moreover, the IC50 in the data set with CYP2C9 was above 100 µM. Moreover, the “Inhibitor of BCRP, P-gp, OAT1, OAT3, OCT1, OCT2, OATP1B1, OATP1B3, or BSEP (conclusion)” value (“Inhibitor of BCRP, P-gp, OAT1, OAT3” for short) in data set [1] was “not considered inhibitors”. The “OCT2-mediated uptake relative to corresponding controls” value in the data set with OCT2 was below 2 fold.
For the substance “ISIS 420915: 20-mer 2′-MOE gapmer PS backbone antisense inhibitor of transthyretin, sequence TCTTGGTTACATGAAATCCC (all phosphorothioate, sugars by position and methylation of C not given here; 2'-MOE gapmer)”, the IC50 with CYP1A2, in the data set with CYP3A4, with CYP2D6, in the data set with CYP2E1, with CYP2B6 and with CYP2C19 was above 100 µM each time. Further, in the data set with CYP2C9, the IC50 was above 100 µM. In addition, the “Inhibitor of BCRP, P-gp, OAT1, OAT3” value in [1] is recorded as “not considered inhibitors”. Besides, the “OCT2-mediated uptake relative to corresponding controls” value in the data set with OCT2 is recorded as below 2 fold.
Take “ISIS 681257: 20-mer 2′-MOE gapmer PS/PO mixed backbone ASO conjugated to 5′-trishexylamino GalNAc3, targets Lp(a), sequence TGCTCCGTTGGTGCTTGTTC (5' {GalNAc3}, sugars by position and backbone not given here; 2'-MOE gapmer with mixed PS/PO backbone)”: the “Inhibitor of BCRP, P-gp, OAT1, OAT3” value in data set [1] is reported as “not considered inhibitors”. For the same substance, the “OCT2-mediated uptake relative to corresponding controls” value with OCT2 is given as below 2 fold.
